Where two headings read alike, the source gives them in different places.
Legend:
[1] = cited from earlier work
[2] = test system: blood platelet aggregation; settings: literature; cited from earlier work
[3] = test system: human platelet-rich plasma; test: platelet aggregation in citrated human platelet-rich plasma (aggregometer); type: cell-based
Protocol: Platelet aggregation was studied in an aggregometer (Chronolog Corp., Phila., PA) using 0.5 ml citrated human platelet-rich plasma at 35° C. One minute after addition of analogue (up to 2 μl of a 25 mM solution in ethanol) aggregation was initiated by addition of sodium arachidonate (0.3-0.5 mM), ADP (2 μM) collagen (1 μg/ml), epinephrine (50 μM), 9,11-azo-PGH2 (0.1-0.6 μM). The analogues were also tested for their effects on the inhibition of ADP-induced aggregation by 2 nM prostacyclin or 20 nM prostaglandin D2.

[4] = test system: formation of thromboxane B2; test: formation of thromboxane B2
[5] = test system: New Zealand white rabbits; test: effect of CTA2 on intact anesthetized rabbits; type: in vivo, rabbit
Protocol: To study the effect of CTA2 on intact animals, New Zealand white rabbits 2-3.5 kg were anesthetized with pentobarbital sodium (25 mg/kg) and placed in the supine position. The right femoral and external jugular veins and the left common carotid artery were cannulated with polyethylene catheters. Standard limb needle electrodes were placed subcutaneously for recording the electrocardiogram (ECG). The trachea was cannulated with a glass tube connected to a pressure transducer for the recording of airway pressure. Mean arterial blood pressure (MABP), central venous pressure (CVP), airway pressure, and lead III of the ECG were continuously recorded on a Grass Model 7 oscillographic recorder. Sodium arachidonate (95% pure, Sigma Chamical) at 2.0 mg/kg or CTA2 (125 μg/kg) were injected into the […], and the rabbit observed until death. Two ml blood samples were drawn into 25 mM EDTA just prior to injection of drug and just prior to death for radio-immunoassay of thromboxane B2.

[6] = test system: cat coronary arteries; test: constriction of isolated perfused cat coronary arteries (perfusion pressure at constant flow); type: cell-based
Protocol: Thromboxane A2 analogues (up to 4 μl of a 2.5 mM solution in ethanol) were tested for their effects on cat coronary arteries continuously perfused with 10 ml Krebs-Henseleit solution as described below.
Cats of either sex (2.5-3.5 kg) were anesthetized with sodium pentobarbital (30 mg/kg) given intravenously. […] A 20-gauge stainless steel cannula was inserted into the right coronary artery via the coronary ostium. Distal to the cannula, approximately 1 cm of coronary artery was dissected free of surrounding tissue. The section of right coronary artery with the cannula in place was excised from the heart and immediately transferred to a constant flow perfusion apparatus.
The perfusion apparatus consists of a reservoir containing 20 ml of warm (37° C.) oxygenated (95% O2 +5% CO2) K-H solution which bathes the coronary artery and serves as recirculating perfusate. An increase in perfusion pressure signifies […]. Following an initial 1 hr. equilibrium period, vascular responsiveness was established by adding 25 mM KCl. […] Fresh K-H dilutions of stock thromboxane analog concentrations were added to the perfusate reservoir in 0.1-0.2 ml volumes. […] Constriction of the arteries was induced by addition of 15 or 30 nM 9,11-azo-prostaglandinendoperoxide (azo-PGH2), or 1 μM 9,11-methanoepoxy-PGH2.

[7] = test system: coronary artery; settings: normal and high concentrations; literature; cited from earlier work

CCCCC[C@H](O)/C=C/[C@H]1O[C@H]2C[C@H](O2)[C@@H]1C/C=C\CCCC(=O)O [TA2, thromboxane A2]
half-life ([1]; pH 7.4 and 37° C.): 30 s

CCCCC[C@H](O)/C=C/[C@@H]1[C@H]2C/C(=C/CCCC(=O)O)O[C@H]2C[C@H]1O [prostacyclin, 6,9 α-oxido-11α, 15 α-dihydroxyprosta (Z), 5, E (13)-dienoic acid]
half-life ([1]; physiological conditions): about 2 minutes
effect on platelet aggregation [2]: most potent inhibitor of blood platelet aggregation

CCCCC[C@H](O)/C=C/C1CC2CC(C2)C1C/C=C\CCCC(=O)O (stereo partly drawn) [CTA2, Carbocyclic Thromboxane A2, free acid]
inhibition of arachidonic acid induced platelet aggregation [3]: potent inhibitor
intrinsic ability to aggregate platelets [3]: no intrinsic ability to agreggate plateletes
effect on arachidonic acid induced aggregation ([3]; 1-2 μM): delayed the onset of platelet aggregation without actually inhibiting the magnitude of the overall response
inhibition of platelet aggregation to a variety of prostanoids ([3]; arachidonic acid, 9-11-azo PGH2, 9,11-methanoepoxy PGH2 and 9,11-epoxymethano PGH2): very potent inhibitor
prevention of induced platelet aggregation ([3]; at 4 to 5 μM): completely prevented
prevention of induced platelet aggregation ([3]; lower concentrations, 1 to 4 μM): only partially protective
induction of platelet aggregation in vitro ([3]; up to concentrations of 100 μM): failed to induce platelet aggregation
inhibition of the formation of thromboxane B2 [4]: selectively inhibits
time of death after injection ([5]; anesthetized rabbit, 125 μg/kg intravenously, typical response): nine
sudden cardiac death in rabbits ([5]; severe myocardial ischemia without coronary thrombosis): induces sudden cardiac death
rank order of constrictor potency ([6]; CTA2 vs azo-PGH2 >9,11-methanoepoxy-PGH2 >9,11 epoxymethano-PGH2 >>PGH2 >>Thromboxane B2): more potent a constrictor
vasoconstricting potency compared with natural thromboxane A2 ([6]; cat coronary arteries): potencies comparable to those of the natural thromboxane A2
antagonism of the coronary constrictor effects of 9,11-methanoepoxy PGH2 ([6]; concentrations up to 10^-7 M): did not antagonize
constriction (increased perfusion pressure at constant flow) ([6]; isolated perfused cat coronary arteries): dose-dependent constriction
potency relative to 9,11-azo PGH2 (EC20) ([6]; relative to 9,11-azo PGH2): 4 times
potency relative to the other two PGH2 derivatives (EC20) ([6]; relative to 9,11-methanoepoxy PGH2 and 9,11-epoxymethano PGH2): 5-6 times
potency relative to TB2, by concentration giving a 20 mm Hg increase in coronary perfusion pressure (EC20) ([6]; relative to TB2): 10,000 times

CCCCC[C@@H](O)/C=C/[C@H]1C[C@H]2C[C@@H]([C@@H]1C/C=C\CCCC(=O)O)C2(C)C [PTA2, pinane thromboxane A2, reference compound]
effect on coronary artery contraction [7]: inhibits coronary artery contraction
antagonism of the coronary constrictor effects of CTA2 [6]: almost completely antagonized

CCCCCC/C=C/C1C2CC(ON2)C1C/C=C\CCCC(=O)O (stereo not drawn) [15-deoxy-9,11-epoxyimino-PGH2]
effect on platelet aggregation [2]: inhibits platelet aggregation

CCCCCC/C=C/C1C2CC(N=N2)C1C/C=C\CCCC(=O)O (stereo not drawn) [15-deoxy-9, 11-azo-PGH2]
effect on platelet aggregation [2]: inhibits platelet aggregation

From patent US4260806A, “Carbocyclic thromboxane A2 analogues” (priority 1979, dated 1981)
